Measurements as given in patent US20160083391A1, “TRICYCLIC PIPERAZINE DERIVATIVE” (Sunovion Pharmaceuticals Inc., priority 2014, published 2016).

system: PDE1; assay: In vitro HTRF PDE1 inhibition assay; assay type: biochemical; conditions: HTRF cGMP assay, 100 nM cyclic GMP, PDE (1A3, 1B or 1C) with calmodulin, 45 minutes at 37° C.; isoform of the tabulated values not stated
Procedure, shortened: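 HTRF cGMP competition assay: PDE1A3, 1B or 1C with calmodulin acting on 100 nM cGMP in 1% DMSO, pH 7.4 buffer with Ca2+ and Mg2+, 45 min at 37 °C. Remaining cGMP detected with d2-cGMP and anti-cGMP cryptate (665/615 nm); IC50 reported as banded categories.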

Q: Which IC50 does the source give for `CC(C)n1ncc2c(=O)n3c(nc21)CN(Cc1cnccn1)CC3` [Compound I-202, 1-Isopropyl-8-(pyrazin-2-ylmethyl)-6,7,8,9-tetrahydropyrazino[1,2-a]pyrazolo[3,4-d]pyrimidin-4(1H)-one] here?
A: 1 to 10 µM

Q: Which IC50 does the source give for `O=c1c2cnn(C3CCCC3)c2nc2n1CCN(Cc1cnccn1)C2` [Compound I-203, 1-Cyclopentyl-8-(pyrazin-2-ylmethyl)-6,7,8,9-tetrahydropyrazino[1,2-a]pyrazolo[3,4-d]pyrimidin-4(1H)-one] here?
A: 1 to 10 µM

Q: `CC(C)c1ncc2c(=O)n3c(nn12)CN(Cc1cnccn1)CC3` [Compound I-204, 3-Isopropyl-7-(pyrazin-2-ylmethyl)-8,9-dihydro-6H-imidazo[5,1-f]pyrazino[2,1-c][1,2,4]triazin-11(7H)-one] was tested. Which IC50 did it give?
A: 1 to 10 µM

Q: Which IC50 does the source give for `O=c1c2cnc(C3CCCC3)n2nc2n1CCN(Cc1cnccn1)C2` [Compound I-205, 3-Cyclopentyl-7-(pyrazin-2-ylmethyl)-8,9-dihydro-6H-imidazo[5,1-f]pyrazino[2,1-c][1,2,4]triazin-11(7H)-one] here?
A: < 1 µM

Q: With `Cc1cnc(CN2CCn3c(nc4c(cnn4C(C)C)c3=O)C2)cn1` [Compound I-206, 1-Isopropyl-8-((5-methylpyrazin-2-yl)methyl)-6,7,8,9-tetrahydropyrazino[1,2-a]pyrazolo[3,4-d]pyrimidin-4(1H)-one] as the molecule, how does the IC50 read?
A: 1 to 10 µM

Q: `Cc1cnc(CN2CCn3c(nc4c(cnn4C4CCCC4)c3=O)C2)cn1` [Compound I-207, 1-Cyclopentyl-8-((5-methylpyrazin-2-yl)methyl)-6,7,8,9-tetrahydropyrazino[1,2-a]pyrazolo[3,4-d]pyrimidin-4(1H)-one] was tested. Which IC50 did it give?
A: 1 to 10 µM

Q: `Cc1cnc(CN2CCn3c(nn4c(C(C)C)ncc4c3=O)C2)cn1` [Compound I-208, 3-Isopropyl-7-((5-methylpyrazin-2-yl)methyl)-8,9-dihydro-6H-imidazo[5,1-f]pyrazino[2,1-c][1,2,4]triazin-11(7H)-one] was tested. Which IC50 did it give?
A: 1 to 10 µM

Q: With `Cc1cnc(CN2CCn3c(nn4c(C5CCCC5)ncc4c3=O)C2)cn1` [Compound I-209, 3-Cyclopentyl-7-((5-methylpyrazin-2-yl)methyl)-8,9-dihydro-6H-imidazo[5,1-f]pyrazino[2,1-c][1,2,4]triazin-11(7H)-one] as the molecule, how does the IC50 read?
A: < 1 µM

Q: For `COc1ccc(CN2CCn3c(nc4c(cnn4C4CCOCC4)c3=O)C2)cc1` [Compound I-210, 8-(4-Methoxybenzyl)-1-(tetrahydro-2H-pyran-4-yl)-6,7,8,9-tetrahydropyrazino[1,2-a]pyrazolo[3,4-d]pyrimidin-4(1H)-one], which IC50 is on record?
A: 1 to 10 µM

Q: How did the IC50 turn out when `O=c1c2cnn(C3CCOCC3)c2nc2n1CCN(Cc1ccc(Cl)cc1)C2` [Compound I-211, 8-(4-Chlorobenzyl)-1-(tetrahydro-2H-pyran-4-yl)-6,7,8,9-tetrahydropyrazino[1,2-a]pyrazolo[3,4-d]pyrimidin-4(1H)-one] was run?
A: < 1 µM

Q: `O=c1c2cnn(C3CCOCC3)c2nc2n1CCN(c1ccc(Cl)cc1)C2` [Compound I-212, 8-(4-Chlorophenyl)-1-(tetrahydro-2H-pyran-4-yl)-6,7,8,9-tetrahydropyrazino[1,2-a]pyrazolo[3,4-d]pyrimidin-4(1H)-one] was tested. Which IC50 did it give?
A: < 1 µM

Q: For `COc1ccc(CN2CCn3c(nn4c(CC(C)C)nnc4c3=O)C2)cc1` [Compound I-213, 3-Isobutyl-7-(4-methoxybenzyl)-8,9-dihydro-6H-pyrazino[2,1-c][1,2,4]triazolo[3,4-f][1,2,4]triazin-11(7H)-one], which IC50 is on record?
A: < 1 µM

Q: Which IC50 does the source give for `CC(C)Cc1nnc2c(=O)n3c(nn12)CN(Cc1ccccc1)CC3` [Compound I-214, 7-Benzyl-3-isobutyl-8,9-dihydro-6H-pyrazino[2,1-c][1,2,4]triazolo[3,4-f][1,2,4]triazin-11(7H)-one] here?
A: 1 to 10 µM

Q: For `CC(C)Cc1nnc2c(=O)n3c(nn12)CN(Cc1ccc(Cl)cc1)CC3` [Compound I-215, 7-(4-Chlorobenzyl)-3-isobutyl-8,9-dihydro-6H-pyrazino[2,1-c][1,2,4]triazolo[3,4-f][1,2,4]triazin-11(7H)-one], which IC50 is on record?
A: < 1 µM

Q: For `CC(C)c1nnc2c(=O)n3c(nn12)CN(Cc1ccc(Cl)cc1)CC3` [Compound I-221, 7-(4-Chlorobenzyl)-3-isopropyl-8,9-dihydro-6H-pyrazino[2,1-c][1,2,4]triazolo[3,4-f][1,2,4]triazin-11(7H)-one], which IC50 is on record?
A: 1 to 10 µM

Q: Which IC50 does the source give for `COc1ccc(CN2CCn3c(nn4c(C(C)C)nnc4c3=O)C2)cc1` [Compound I-222, 3-Isopropyl-7-(4-methoxybenzyl)-8,9-dihydro-6H-pyrazino[2,1-c][1,2,4]triazolo[3,4-f][1,2,4]triazin-11(7H)-one] here?
A: 1 to 10 µM

Q: With `CC(C)c1nnc2c(=O)n3c(nn12)CN(Cc1ccccc1)CC3` [Compound I-223, 7-Benzyl-3-isopropyl-8,9-dihydro-6H-pyrazino[2,1-c][1,2,4]triazolo[3,4-f][1,2,4]triazin-11(7H)-one] as the molecule, how does the IC50 read?
A: 1 to 10 µM

Q: With `CC(C)Cc1nnc2c(=O)n3c(nn12)CN(Cc1ccccn1)CC3` [Compound I-224, 3-Isobutyl-7-(pyridin-2-ylmethyl)-8,9-dihydro-6H-pyrazino[2,1-c][1,2,4]triazolo[3,4-f][1,2,4]triazin-11(7H)-one] as the molecule, how does the IC50 read?
A: 1 to 10 µM

Q: With `CC(C)c1nnc2c(=O)n3c(nn12)CN(CCc1ccccc1)CC3` [Compound I-225, 3-Isopropyl-7-phenethyl-8,9-dihydro-6H-pyrazino[2,1-c][1,2,4]triazolo[3,4-f][1,2,4]triazin-11(7H)-one] as the molecule, how does the IC50 read?
A: 1 to 10 µM

Q: Which IC50 does the source give for `CC(C)c1nnc2c(=O)n3c(nn12)CN(Cc1ccccn1)CC3` [Compound I-226, 3-Isopropyl-7-(pyridin-2-ylmethyl)-8,9-dihydro-6H-pyrazino[2,1-c][1,2,4]triazolo[3,4-f][1,2,4]triazin-11(7H)-one] here?
A: > 10 µM

Q: With `CC(C)Cc1nnc2c(=O)n3c(nn12)CN(CCc1ccccc1)CC3` [Compound I-227, 3-Isobutyl-7-phenethyl-8,9-dihydro-6H-pyrazino[2,1-c][1,2,4]triazolo[3,4-f][1,2,4]triazin-11(7H)-one] as the molecule, how does the IC50 read?
A: 1 to 10 µM

Q: For `CC(C)Cc1nnc2c(=O)n3c(nn12)CN(Cc1ccncc1)CC3` [Compound I-228, 3-Isobutyl-7-(pyridin-4-ylmethyl)-8,9-dihydro-6H-pyrazino[2,1-c][1,2,4]triazolo[3,4-f][1,2,4]triazin-11(7H)-one], which IC50 is on record?
A: 1 to 10 µM

Q: With `COc1ccc(CN2CCn3c(nn4c(C5CCOCC5)ncc4c3=O)C2)cc1` [Compound I-234, 7-(4-Methoxybenzyl)-3-(tetrahydro-2H-pyran-4-yl)-8,9-dihydro-6H-imidazo[5,1-f]pyrazino[2,1-c][1,2,4]triazin-11(7H)-one] as the molecule, how does the IC50 read?
A: < 1 µM

Q: How did the IC50 turn out when `O=c1c2cnc(C3CCOCC3)n2nc2n1CCN(Cc1ccc(Cl)cc1)C2` [Compound I-235, 7-(4-Chlorobenzyl)-3-(tetrahydro-2H-pyran-4-yl)-8,9-dihydro-6H-imidazo[5,1-f]pyrazino[2,1-c][1,2,4]triazin-11(7H)-one] was run?
A: < 1 µM

Q: `O=c1c2cnc(C3CCOCC3)n2nc2n1CCN(c1ccc(Cl)cc1)C2` [Compound I-236, 7-(4-Chlorophenyl)-3-(tetrahydro-2H-pyran-4-yl)-8,9-dihydro-6H-imidazo[5,1-f]pyrazino[2,1-c][1,2,4]triazin-11(7H)-one] was tested. Which IC50 did it give?
A: < 1 µM

Q: How did the IC50 turn out when `CC(C)n1ncc2c(=O)n3c(nc21)CN(c1ccc(C#N)cc1)CC3` [Compound I-237, 4-(1-Isopropyl-4-oxo-6,7-dihydropyrazino[1,2-a]pyrazolo[3,4-d]pyrimidin-8(1H,4H,9H)-yl)benzonitrile] was run?
A: < 1 µM

Q: `CC(C)c1ncc2c(=O)n3c(nn12)CN(c1ccc(C#N)cc1)CC3` [Compound I-238, 4-(3-Isopropyl-11-oxo-8,9-dihydro-6H-imidazo[5,1-f]pyrazino[2,1-c][1,2,4]triazin-7(11H)-yl)benzonitrile] was tested. Which IC50 did it give?
A: < 1 µM

Q: For `CC(C)n1ncc2c(=O)n3c(nc21)CN(c1ccc(C(F)(F)F)cc1)CC3` [Compound I-239, 1-Isopropyl-8-(4-(trifluoromethyl)phenyl)-6,7,8,9-tetrahydropyrazino[1,2-a]pyrazolo[3,4-d]pyrimidin-4(1H)-one], which IC50 is on record?
A: < 1 µM

Q: Which IC50 does the source give for `CC(C)c1ncc2c(=O)n3c(nn12)CN(c1ccc(C(F)(F)F)cc1)CC3` [Compound I-240] here?
A: < 1 µM

Q: For `CC(C)n1ncc2c(=O)n3c(nc21)CN(c1ccc(Cl)cn1)CC3` [Compound I-241, 8-(5-Chloropyridin-2-yl)-1-isopropyl-6,7,8,9-tetrahydropyrazino[1,2-a]pyrazolo[3,4-d]pyrimidin-4(1H)-one], which IC50 is on record?
A: < 1 µM

Q: `CC(C)c1ncc2c(=O)n3c(nn12)CN(c1ccc(Cl)cn1)CC3` [Compound I-242, 7-(5-Chloropyridin-2-yl)-3-isopropyl-8,9-dihydro-6H-imidazo[5,1-f]pyrazino[2,1-c][1,2,4]triazin-11(7H)-one] was tested. Which IC50 did it give?
A: < 1 µM

Q: How did the IC50 turn out when `O=c1c2cnn(C3CCCC3)c2nc2n1CCN(CCc1ccc(Cl)cc1)C2` [Compound I-243, 8-(4-Chlorophenethyl)-1-cyclopentyl-6,7,8,9-tetrahydropyrazino[1,2-a]pyrazolo[3,4-d]pyrimidin-4(1H)-one] was run?
A: 1 to 10 µM

Q: With `COc1ccc(CCN2CCn3c(nn4c(C5CCCC5)ncc4c3=O)C2)cc1` [Compound I-244, 3-Cyclopentyl-7-(4-methoxyphenethyl)-8,9-dihydro-6H-imidazo[5,1-f]pyrazino[2,1-c][1,2,4]triazin-11(7H)-one] as the molecule, how does the IC50 read?
A: 1 to 10 µM

Q: With `CC(C)c1nnc2c(=O)n3c(nn12)CN(Cc1ccncc1)CC3` [Compound I-245, 3-Isopropyl-7-(pyridin-4-ylmethyl)-8,9-dihydro-6H-pyrazino[2,1-c][1,2,4]triazolo[3,4-f][1,2,4]triazin-11(7H)-one] as the molecule, how does the IC50 read?
A: > 10 µM

Q: With `O=c1c2cnn(C3CCC3)c2nc2n1CCN(c1ccc(Cl)cc1)C2` [Compound I-246, 8-(4-Chlorophenyl)-1-cyclobutyl-6,7,8,9-tetrahydropyrazino[1,2-a]pyrazolo[3,4-d]pyrimidin-4(1H)-one] as the molecule, how does the IC50 read?
A: 1 to 10 µM

Q: `CC(C)(C)n1ncc2c(=O)n3c(nc21)CN(c1ccc(Cl)cc1)CC3` [Compound I-247, 1-(tert-Butyl)-8-(4-chlorophenyl)-6,7,8,9-tetrahydropyrazino[1,2-a]pyrazolo[3,4-d]pyrimidin-4(1H)-one] was tested. Which IC50 did it give?
A: 1 to 10 µM
